# Experimental data reported in patent US20220000872A1, “METHOD OF ENHANCING IMMUNE-BASED THERAPY” (OncoTracker, Inc., priority 2018, published 2022).
# “Also recorded” adds a separate entry of the source.
# What was measured:
# [1] = system: PD-L1 protein expression; test: PD-L1 protein expression on MM cells by flow cytometry, BMMCs co-cultured with HS-5 stromal cells; assay type: cell-based, human; conditions: fresh MM BMMCs co-cultured with HS-5, 72 hours
# Procedure: To investigate the effects of RUX on PD-L1 protein expression on myeloma cell membranes, fresh MM BMMCs were isolated from MM patients and co-cultured with stromal cells (HS-5, ATCC). After 72 hours, cells were fixed using 2% paraformaldehyde for 30 minutes on ice and washed with PBS twice. The cells were stained with anti-PD-L1 antibody conjugated with PE and anti-CD138 antibody conjugated with FITC antibody for 2 hrs and analyzed by flow cytometry using a Beckman Coulter FC500 cytometer with Cytomics CXP software (Beckman Coulter, Fullerton, Calif.).
# [2] = system: PD-L1 expression in the xenograft; test: PD-L1 expression in human MM xenograft LAGκ-2 in severe combined immune deficient mice; assay type: in vivo; conditions: LAGκ-2 in SCID mice; RUX 30 mg/kg; vs untreated control group
# Procedure: (§1) We further investigated the effects of RUX on PD-L1 and PD-L2 expression in primary and stromal cells from MM patients' BM samples in vitro. […] We then determined whether RUX can augment the anti-MM effects of T-cells in vitro. […] To evaluate the efficacy of drugs in vivo, severe combined immune deficient mice implanted with the human MM xenograft LAGκ-2 were treated with RUX (30 mg/kg).
# [3] = system: multiple myeloma; conditions: combined with a thalidomide derivative such as lenalidomide and optionally a steroid or glucocorticoid; cited from earlier work
# [4] = system: CD8 gene expression; test: CD8 gene expression in MMBM (Example 12); assay type: cell-based, human
# Procedure: (§2) Bone marrow mononuclear cells (BMMCs) were collected from MM patients after obtaining IRB approval. Single-cell suspensions were prepared from human MM LAGλ-1A xenografts which had been grown in severe combined immunodeficient mice. HS-5 stromal and SUP-T1 T cells were purchased from ATCC. The cells were cultured and treated with or without RUX and then subjected to qRT-PCR, flow cytometric analysis, and western blot analysis. For qRT-PCR, total RNA was extracted and applied to cDNA synthesis, followed by qPCR. Gene expression was analyzed in MM BMMCs alone or co-cultured with stromal cells or T cells with or without Rux treatment (1 μM) in vitro.
# Next, we tested whether B7-H3 blockade by Rux could potentially restore exhausted T cell activity against myeloma cells in MMBM.
# [5] = system: multiple myeloma; conditions: Phase 1 clinical trial NCT00639002; cited from earlier work
# [6] = system: B7-H3; test: B7-H3 expression (qRT-PCR, flow cytometry, western blot) in MM cells (Example 12); assay type: cell-based, human
# Procedure: as §2
# [7] = system: PD-1 expression on T-cells; test: PD-1 expression on T-cells (Example 11); assay type: cell-based
# [8] = system: B7-H3 gene expression; test: B7-H3 gene expression (qPCR) in MM BMMCs, U266 cells and THP-1 monocytes; assay type: cell-based, human; conditions: RUX 1 μM
# Procedure: We further examined BMMCs from two MM patients (#s 2188 and 2935) treated with RUX (1 μM) for 24 hours. RUX reduced B7-H3 gene expression as measured using qPCR in BMMCs (FIG. 7B). We also analyzed BMMCs co-cultured with stromal cells. B7-H3 gene expression was increased 16-fold in BMMCs after these cells were co-cultured with stromal cells. […] We further determined the effect of RUX (1 μM) on gene expression of B7-H3 in the MM cell line U266 co-cultured with THP-1 monocytes (T) after 48 hours. RUX at 1 μM reduced B7-H3 expression in both U266 MM cells and THP-1 monocytes, cultured alone or co-cultured, compared to cell cultures not treated with RUX (FIG. 7D).
# [9] = system: MM cell; test: MM cell apoptosis in the presence of IL-2 stimulated T-cells (Example 11); assay type: cell-based, human; conditions: RUX 0-5 μM; antibodies 0-10 μg/ml; concentration dependent
# Procedure: as §1, with “mg/kg). […] In contrast, RUX had no effect on PD-1 expression on T-cells.” for “mg/kg).”
# [10] = system: PD-L2 gene expression; test: PD-L2 gene expression (qPCR) in MM BMMCs co-cultured with THP-1 monocytes; assay type: cell-based, human; conditions: BMMCs from MM patient #3041 co-cultured with THP-1 monocytes, RUX 1 μM, 48 hours
# Procedure: MM patient #3041 bone marrow mononuclear cells were co-cultured with THP-1 monocytes with or without RUX (from […] to 10 μM) for 48 hours.
# Next, we investigated the effects of ruxolitinib (RUX) on PD-L1 and PD-L2 gene expression in MM bone marrow mononuclear cells (BMMCs) co-cultured with THP-1 monocytes. THP-1 monocytes co-cultured with primary BMMCs from MM patient #3041 were grown in the presence or absence of RUX (1 μM).
# [11] = system: MM cells; test: Dead MM cells by Trypan blue staining, BMMCs co-cultured with HS-5 stromal cells; assay type: cell-based, human; conditions: MM BMMCs co-cultured with HS-5
# [12] = system: IL-2 gene expression; test: IL-2 gene expression (qPCR) in BMMCs from three MM patients; assay type: cell-based, human; conditions: RUX 1 μM, 24 hours
# Procedure: BMMCs from three MM patients were treated with RUX (1 μM) for 24 hours with or without co-culture with T cells in vitro. IL-2 gene expression levels were determined using qPCR RUX induced IL-2 expression in BMMCs alone and those co-cultured with T cells (SUP-T1, ATCC) in Trans-well culture dishes.
smiles,measurement,setting,value
"N#CC[C@H](C1CCCC1)n1cc(-c2ncnc3[nH]ccc23)cn1 [RUX, ruxolitinib]",PD-L1-expressing MM tumor cells,[1],reduced in a concentration dependent manner
same,PD-L1 expression in the xenograft,[2],significantly decreased
same,"efficacy in treating hematological malignancies (in particular, multiple myeloma)",[3],effective
same,CD8 gene expression in BM cocultured with T cells,[4]; SUP-T1,elevated
same,CD8 gene expression in MMBM with lower plasma percentages,[4]; plasma cell percentage <30%,increase
same,efficacy of monotherapy for multiple myeloma,[5],ineffective
same,B7-H3 expression in BM from patients in PD co-cultured with stromal cells (HS-5),"[6]; after 48-72 hours, Rux 1 μM",significantly reduced
same,B7-H3 expression in MM cells (U266),"[6]; after 48-72 hours, Rux 1 μM",significantly reduced
same,B7-H3 expression in MMBMMCs in patients with PD,"[6]; after 48-72 hours, Rux 1 μM",significantly reduced
same,B7H3 expression in human MM xenograft model LAGλ-1A,[6]; cultured ex vivo,decreased
same,B7-H3 at protein levels,[6]; flow cytometric analysis and western blotting,suppressed
same,PD-1 expression on T-cells,[7],no effect
same,B7-H3 gene expression in BMMCs,"[8]; BMMCs from two MM patients (#2188, #2935), 24 hours, qPCR",reduced; also recorded: down-regulates
same,B7-H3 expression in BMMCs co-cultured with stromal cells,[8],markedly reduced; also recorded: decreases
same,B7-H3 expression in U266 MM cells,"[8]; cultured alone or co-cultured with THP-1, 48 hours",reduces
same,B7-H3 expression in THP-1 monocytes,"[8]; cultured alone or co-cultured with U266, 48 hours",reduced
same,MM cell apoptosis in the presence of IL-2 stimulated T-cells,[9],increased
same,PD-L2 gene expression in MM BMMCs,[10],marked decrease; also recorded: inhibits
same,percentage of dead MM cells,[11],increased in a concentration dependent fashion
same,IL-2 expression in BMMCs alone,[12],induced; also recorded: increased
same,IL-2 expression in BMMCs co-cultured with T cells,[12]; SUP-T1 in Trans-well dishes,induced
